Test results: patent EP2688405B1 (priority 2011, dated 2012)
≈ marks a conversion by molar mass, not a printed value. Read-outs that look alike come from different tables or passages of the source.

Key:
Type in all cases: cell-based
[1] = test system: Phytophthora infestans; conditions: Phytin, single compound
[2] = test system: Botrytis cinerea; experiment: Microtest with mixtures of active compounds, grey mold (Botrci); conditions: single compound
[3] = test system: Septoria tritici; experiment: Microtest with mixtures of active compounds, leaf blotch on wheat (Septtr)
[4] = test system: Pseudomonas aeruginosa ATCC 27853; experiment: Minimum Inhibitory Concentration (MIC) test, broth microdilution; conditions: ATCC 27853 / DSM 1117, IsoSensitest broth, 24 hours at 37°C, no growth (OD smaller than 0.1)
[5] = test system: Staphylococcus aureus ATCC 29213; experiment: as above; conditions: ATCC 29213 / DSM 2569, IsoSensitest broth, 24 hours at 37°C, no growth (OD smaller than 0.1)
[6] = test system: Pyricularia oryzae; conditions: Pyrior, single compound

SMILES: COC(=O)N(OC)c1ccccc1COc1ccn(-c2ccc(Cl)cc2)n1 [Pyraclostrobin]
- Observed efficacy ([1]; 0.063 ppm): 24%
- Observed efficacy ([2]; 0.016 ppm): 0%
- Observed efficacy ([3]; Septtr, single compound, 0.001 ppm): 38%

SMILES: CC1=C(C(=O)O)N2C(=O)[C@@H](NC(=O)[C@H](N)c3ccccc3)[C@H]2SC1 [Control 1, Cephalexine]
- MIC [4]: > 4100 µg/mL
- MIC [5]: 4 µg/mL (≈ 11.5 µM)

SMILES: Fc1ccc([C@@]2(Cn3ncnc3S)O[C@@H]2c2ccccc2Cl)c(F)c1 (relative stereo) [Azole*, 2-[rel-(2S;3R)-3-(2-chlorophenyl)-2-(2,4-difluorophenyl)-oxiranylmethyl]-2H-[1,2,4]triazole-3-thiol]
- Observed efficacy ([6]; 16 ppm): 65%
- Observed efficacy ([1]; 4 ppm): 20%
- Observed efficacy ([2]; 1 ppm): 15%
- Observed efficacy ([3]; 0.25 ppm): 4%
- Observed efficacy ([3]; 4 ppm): 40%

SMILES: CCn1cc(C(=O)O)c(=O)c2ccc(C)nc21 [Control 3, Nalidixic acid]
- MIC [4]: 1020 µg/mL (≈ 4410 µM)
- MIC [5]: 64 µg/mL (≈ 276 µM)

SMILES: Fc1ccc([C@]2(Cn3cncn3)O[C@H]2c2ccccc2Cl)cc1 (racemic) [Epoxiconazole]
- Observed efficacy ([6]; 0.25 ppm): 5%
- Observed efficacy ([1]; 0.25 ppm): 11%
- Observed efficacy ([2]; 0.063 ppm): 34%

SMILES: CC(=O)[O-].CCCCn1cc[n+](CCCC)c1 [C2, 1,3-Dibutylimidazolium acetate]
- MIC [4]: 4100 µg/mL
- MIC [5]: 2050 µg/mL

SMILES: Cn1cc(C(=O)Nc2ccccc2-c2cc(F)c(F)c(F)c2)c(C(F)F)n1 [Fluxapyroxad]
- Observed efficacy ([1]; 0.063 ppm): 12%
- Observed efficacy ([2]; 0.016 ppm): 13%
